Measurements taken from patent US11083706B2, “Lactams for use in the treatment of skin lesions” (priority 2016, dated 2021).
Entries after “also recorded” stand apart in the source; their conditions may differ.

Columns and labels:
[1] = tested on: enzymes (PqsABCD) involved in AQ biosynthesis; assay: HHQ/AQ biosynthesis in PAO1-N ΔpqsAHR pBBR-pqsABCD, TLC with biosensor overlay; type: cell-based, P. aeruginosa PAO1-N ΔpqsAHR; conditions: 488 200 μM, overnight in LB
Text: To determine whether 4-(4-chlorophenyl)-5-methylene-pyrrol-2-one (Ref. 488) is capable of inhibiting the enzymes (PqsABCD) involved in AQ biosynthesis, the P. aeruginosa PAO1-N ΔpqsAHR was exploited. This mutant cannot produce AQs because the genes coding for the key biosynthetic enzymes (PqsA and PqsH) and regulation (PqsR) have been deleted. To restore AQ production in a PqsR-independent manner in PAO1-N ΔpqsA, the pqsABCD genes were introduced on a plasmid (pBBR pqsABCD; Niewerth et al. 2011). P. aeruginosa PAO1-N ΔpqsAHR and P. aeruginosa PAO1-N ΔpqsAHR pBBR pqsABCD were both incubated overnight in LB with and without 4-(4-chlorophenyl)-5-methylene-pyrrol-2-one (Ref. 488) (200 μM), resuspended to an OD600 1.0. The cultures were extracted with acidified ethyl acetate, the organic phase removed, dried and resuspended in methanol subjected to thin layer chromatography (TLC).
After chromatography using a dichloromethane-methanol mobile phase, the TLC plates were overlaid with a thin agar layer containing the AQ biosensor strain PAO1-L ΔpqsA CTX::pqsA′-luxCDABE (Fletcher et al. 2007) incubated and examined for reporter output (FIG. 13). […] The biosensor strain produces light (FIG. 13 panel C) and pyocyanin (FIG. 13 panel B) in response to AQs that bind to PqsR and activate the pqsA promoter.

[2] = tested on: PqsR-independent pathway of pqsA expression; assay: PqsR-independent expression of pqsA'::lux in PAO1-N ΔpqsAHR; type: cell-based, P. aeruginosa PAO1-N ΔpqsAHR; conditions: presence or absence of 40 μM PQS
Text: PQS is capable of weakly activating pqsA in the absence of PqsR via a mechanism that is not fully understood but appears to depend on the iron chelating properties of PQS. The aim of this experiment was to clarify whether lactam 4-(4-chlorophenyl)-5-methylene-pyrrol-2-one (Ref. 488) is also inhibitory for pqsA expression via the PqsR independent pathway. As previously described, the pqsA′::lux biosensor based on the triple mutant PAO1-N ΔpqsAHR cannot produce AQs and lacks pqsR but still responds to exogenous PQS. This response is however much weaker that the PqsR-dependent response.

PqsR = target: T1, PqsR (Pseudomonas aeruginosa, UniProt Q9I4X0); assay: PQS-dependent pqsA::lux expression in AQ-non-producing PAO1-L ΔpqsA (PqsR antagonism); type: cell-based, P. aeruginosa PAO1-L ΔpqsA
T1 construct: endogenous in cells; host or cells: P. aeruginosa PAO1-L ΔpqsA pqsA::lux (chromosomal reporter fusion)
T1 sequence (Q9I4X0 whole entry, the tested form may be a part): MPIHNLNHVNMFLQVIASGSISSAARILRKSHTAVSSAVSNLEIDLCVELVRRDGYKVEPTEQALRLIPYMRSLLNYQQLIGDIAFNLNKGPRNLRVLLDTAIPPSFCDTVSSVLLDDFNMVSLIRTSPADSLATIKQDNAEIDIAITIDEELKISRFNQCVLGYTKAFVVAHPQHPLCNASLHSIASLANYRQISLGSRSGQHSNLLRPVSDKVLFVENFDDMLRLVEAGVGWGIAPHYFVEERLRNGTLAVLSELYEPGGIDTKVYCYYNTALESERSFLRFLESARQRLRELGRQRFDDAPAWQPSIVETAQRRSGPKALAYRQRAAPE
Experimental: By using the AQ-non producing P. aeruginosa strain PAO1-L ΔpqsA, pqsA::lux, the EC50 value for the native PqsR agonist, PQS was calculated as ˜2 μM (Ilangovan et al. 2013). […]
A partial agonist is a molecule that can bind to and activate a receptor resulting in a non-complete response compared with a full agonist. […] This contrasts with its activity as an antagonist in the presence of 10 or 40 μM PQS.

[3] = tested on: PqsR-dependent pqsA::lux promoter fusion; assay: pqsA::lux promoter fusion expression in P. aeruginosa PAO1-L (AQ-dependent QS biosensor); type: cell-based; conditions: for IC50: Pseudomonas aeruginosa, PAO1, read-out: IC50, pqsA::lux expression; for extent of inhibition of light output / pqsA expression at high concentrations: PAO1 pqsA::lux; for inhibition of pqsA::lux expression in first screening (FIG. 1-3): lactam 100 μM, control LB medium+1% methanol
Experimental: The expression of rhl and las AHL- and the pqsA AQ-synthase genes was evaluated using lux-based lasI (FIG. 1), rhlI (FIG. 2) and pqsA (FIG. 3) chromosomally integrated promoter fusions. Luminescence was quantified as a function of bacterial growth. The applicant further determined that none of the lactams is growth inhibitory at 100 μM using a large number of strains (figure not shown).
To determine the relative inhibitory activities (IC50s) of 4-(4-chlorophenyl)-5-methylene-pyrrol-2-one (Ref. 488) and 5-methylene-4-(p-tolyl)pyrrol-2-one (Ref. 491), dose response curves were constructed using the same biosensor strain (P. aeruginosa PAO1 pqsA::lux; Fletcher et al, 2007; Ilangovan et al 2013). This strain produces light in response to the endogenous production of AQs such as PQS and HHQ.

[4] = tested on: pyocyanin production by PAO1-L; assay: Pyocyanin production by PAO1-L, visual assessment; type: cell-based, P. aeruginosa PAO1-L; conditions: 488 at 100 μM (vial 2), 8 h at 37° C., PAO1-L culture supernatant
Text: Pyocyanin is a blue redox-active secondary metabolite and a putative signalling molecule in P. aeruginosa (Jayaseelan et al, 2014). The pyocyanin biosynthetic (phz) genes are regulated by QS and in part via the transcriptional regulator PqsR acting through PqsE (Rampioni et al 2011).
Although qualitative, this observation offers further confirmation of the inhibitory effects of lactam 4-(4-chlorophenyl)-5-methylene-pyrrol-2-one (Ref. 488) on AQ-dependent QS.

SMILES	inhibition of HHQ biosynthesis [1]	effect on PqsR-independent expression of pqsA [2]	mode of antagonism of PQS-dependent pqsA::lux expression (PqsR; 488 at 0, 50, 100, 200 μM with range of PQS concentrations)	restoration of light output by PQS in the presence of 488 (PqsR; 488 at 50, 100, 200 μM)	partial agonist activity (activation of pqsA expression) (PqsR; 488 up to 800 μM, PQS 0 μM, PAO1-L ΔpqsA pqsA'::lux)	fold increase of PQS EC50 in the presence of 488 (PqsR; fixed concentration of 488 (215 μM)) [fold]	IC50 [3] [µM]	extent of inhibition of light output / pqsA expression at high concentrations [3]	inhibition of pqsA::lux expression in first screening (FIG. 1-3) [3]	pyocyanin production (qualitative) [4]
C=C1NC(=O)C=C1c1ccc(Cl)cc1 [Lactam 488, 4-(4-chlorophenyl)-5-methylene-pyrrol-2-one]	did not inhibit HHQ biosynthesis	small inhibitory effect	competitive antagonist	fully restoring light output in the presence of 50 μM but not 100 μM or 200 μM	no partial agonist activity	~15	22	completely inhibited light output; also recorded: fully knock out the PQS	most potent inhibitor; also recorded: inhibition of the pqs-system is the main effect	inhibition of pyocyanin production
C=C1NC(=O)C=C1c1ccc(C)cc1 [Lactam 491, 5-methylene-4-(p-tolyl)pyrrol-2-one]	–	–	–	–	–	–	44	did not inhibit pqsA expression as strongly; also recorded: did not give complete knock out	inhibition of the pqs-system is the main effect	–
